Measured values reported in patent publication US4829082A, “Pharmaceutical compositions for the treatment of skin diseases” (Nisshin Chemicals Co., Ltd., priority 1986, dated 1989).
Values joined by “and” are separate entries in the source; they are usually repeats but may differ in a detail not shown here. Equal entries are not always repeated.

Legend:
callosity = experiment: Callosity, human patient (Test Example 9); assay type: in vivo; details: lotion containing 0.5% by weight of TOC ester, about two weeks
burn ulcer = experiment: Burn ulcer, human patient (Test Example 4); assay type: in vivo; details: same ointment as Test Example 2 (0.5%), after one week
guinea pigs = experiment: Appearance of skin allergy in guinea pigs (induction test); assay type: in vivo; details: challenge two weeks after sensitization, 0.1 ml acetone solution containing 0.05%, 0.10% and 0.20% of TOC ester
Method: Appearance of skin allergy in guinea pigs
Induction tests were conducted, wherein guinea pigs were sensitized with 0.1 ml of 30% chloroform solution, and two weeks after sensitization, the pigs were treated on the skin with 0.1 ml of acetone solution containing 0.05%, 0.10% and 0.20% of TOC ester, respectively.

Acute toxicity in mice = details: mouse, in vivo
skin pruritus = experiment: Skin pruritus, human patient (Test Example 7); assay type: in vivo; details: same ointment as Test Example 2 (0.5%)
housewife eczema = experiment: Housewife eczema, human patient (Test Example 11); assay type: in vivo; details: same hydrophilic ointment as Test Example 10 (0.3%), in a week
dermal ulcer = experiment: Dermal ulcer occurred in a rheumatic patient (Test Example 3); assay type: in vivo, human; details: same ointment as Test Example 2 (0.5%)
Excerpt: (Dermal ulcer occurred in a rheumatic patient)
The same ointment as used in Test Example 2 was applied directly or applied using a gauze over which said ointment had been spread, to a dermal ulcer occurred on a sacral region, sciatic tuber region, elbow head, inner and outer ankle regions and heel region of a person suffering from arthrorheumatism under hospital treatment.

frostbite = experiment: Frostbite, human patient (Test Example 5); assay type: in vivo; details: same ointment as Test Example 2 (0.5%), about one week
[1] = General statement on toxicity, side effects and healing effect
experimental bedsore = experiment: Experimental bedsore of rabbits; assay type: in vivo, Japanese white male rabbits
Excerpt: (Experimental bedsore of rabbits)
Japanese white male rabbits weighing 2.5-4.4 kg were used.
An experimental bedsore was formed on the rabbits in accordance with the methods of Kosiak (Arch. Phys. Med. Rehabil., Vbl. 40, 62-69, 1959) and Fukawa et al. (Applied Pharmacology, Vol. 23, No. 6, 999-1011, 1982). The rabbits were anethetized with Nembutal® and fixed so that the shaved right trochanteric region of the rabbits was held horizontally, a pressure of 500-600 mmHg/cm^2 was applied to 2 cm^2 area of the skin in the shaved region, and the rabbits were held for 5-10 hours to allow development of bedsore. Two days after application of the pressure, occurrence of bedsore was confirmed.
The affective rabbits were distributed to two groups. One group (5 rabbits) was coated on the surface of bedsore region with a lotion containing 0.5% by weight of TOC ester by a brush once a day (said lotion being prepared from 900 parts by weight of water, 95 parts by weight of ethanol and 5 parts by weight of TOC ester). The other control group (4 rabbits) was coated once a day with only the base of the lotion (mixture of 900 parts of weight of water and 95 parts by weight of ethanol). One week after the treatment, a sheet of Japanese paper was applied to the bedsore area occurred in each rabbit. The injured area of said bedsore was transferred to the paper according to the etching method, and the transferred areas were measured by means of a planimeter.

skin keratosis = experiment: Skin keratosis, human patient (Test Example 8); assay type: in vivo; details: same ointment as Test Example 2 (0.5%), three days after treatment
bedsore = experiment: Bedsore, human patient (Test Example 2); assay type: in vivo; details: oil ointment containing 0.5% by weight of TOC ester on gauze
Excerpt: An oil ointment containing 0.5% by weight of TOC ester spread on a gauze was applied to the bedsore areas occurred in the ischium and whirlbone of a person lying in bed for a long time suffering from injury of myelon, said gauze being embedded in a depressed region of deep ulcer of bedsore after crumpling the gauze into a ball, and being applied as it was to a superficial region of the ulcer. The gauze was exchanged once or twice a day.

human being = experiment: Chafe on human being (Patch test); assay type: in vivo; details: cream containing 0.1% and 0.3% of TOC ester
Excerpt: Chafe on human being (Patch test)

[2] = system: ulcer produced after zoster; experiment: Zoster, human patient (Test Example 6); assay type: in vivo
Excerpt: To an ulcer produced after zoster had occurred on the neck through the shoulder of a person was applied a gauze over which the same ointment as used in Test Example 2 had been spread.

rats = experiment: Percutaneous subacute toxicity in rats; assay type: in vivo; details: lotions containing 0.5% and 1.5% of TOC ester
Method: Percutaneous subacute toxicity in rats
Tests were conducted for 30 days using lotions containing 0.5% and 1.5% of TOC ester, respectively.

eyes of rabbits = experiment: Irritation on eyes of rabbits; assay type: in vivo; details: physiological salt suspensions containing 0.05% and 0.5% of TOC ester
Excerpt: Irritation on eyes of rabbits

eczema craquele = experiment: Eczema craquele (cracking and chaps), human patient (Test Example 10); assay type: in vivo; details: hydrophilic ointment containing 0.3% by weight of TOC ester
Excerpt: [Eczema craquele (cracking and chaps)]

Compound: CC(C=CC1=C(C)CCCC1(C)C)=CC=CC(C)=CC(=O)Oc1c(C)c(C)c2c(c1C)CCC(C)(CCCC(C)CCCC(C)CCCC(C)C)O2 (stereo not drawn) [TOC ester, tocopheryl retinoate]
- improvement of callosity (callosity): an improvement such as softening of the callosity
- healing of burn ulcer (burn ulcer): a remarkable improvement in healing of the ulcer
- contact skin allergy (guinea pigs): No contact skin allergy was observed
- LD50 (Acute toxicity in mice; im): > 2500 mg/kg
- LD50 (Acute toxicity in mice; ip): > 10000 mg/kg
- LD50 (Acute toxicity in mice; po): > 10000 mg/kg
- LD50 (Acute toxicity in mice; sc): > 2500 mg/kg
- itching sensation (skin pruritus; one day after treatment): itching sensation ceased
- healing of skin pruritus (skin pruritus; three days after the treatment): the skin pruritus healed perfectly
- healing of housewife eczema (housewife eczema): a marked improvement in healing of the disease
- adverse side effects (dermal ulcer; during treatment period): No adverse side effects was observed
- proliferation of the granulation and epidermization (dermal ulcer; large ulcers, about three months): marked improvements in proliferation of the granulation and in epidermization
- proliferation of the granulation and epidermization (dermal ulcer; small ulcers, about two weeks): marked improvements in proliferation of the granulation and in epidermization
- healing of frostbite (frostbite): an improvement in healing of frostbite
- side effects [1]: almost no side effects
- toxicity [1]: extremely low in toxicity
- Injured area difference, Average ± standard deviation (experimental bedsore; lotion containing 0.5% TOC ester group, 5 rabbits, one week, control 0.907 ± 0.292): 1.82 ± 0.213 cm2
- Injured area after one week (experimental bedsore; lotion containing 0.5% TOC ester once a day, individual rabbits): 1.30 cm2 and 0.98 cm2 and 0.70 cm2 and 0.09 cm2 and 0.23 cm2
- Injured area at the initiation of treatment (experimental bedsore; lotion containing 0.5% TOC ester, individual rabbits, before treatment): 2.68 cm2 and 3.01 cm2 and 1.95 cm2 and 2.20 cm2 and 2.56 cm2
- Injured area, Difference (experimental bedsore; lotion containing 0.5% TOC ester, individual rabbits, initiation minus after one week): 1.38 cm2 and 2.03 cm2 and 1.25 cm2 and 2.11 cm2 and 2.33 cm2
- reduction in the injured area of bedsore (experimental bedsore; lotion containing 0.5% by weight of TOC ester, once a day, one week, 5 rabbits): marked reduction in the injured area of bedsore
- healing of skin keratosis (skin keratosis): a marked improvement in healing of the disease
- bottom region of deep ulcer, buildup of flesh owing to granulation (bedsore; about one month): marked buildup of flesh owing to granulation at the bottom region of deep ulcer
- improvement in cuticularization along the circumference of ulcer (bedsore; about one month): a remarkable improvement in cuticularization
- width of cuticularization along the circumference of ulcer (bedsore; about one month): about 5 mm
- superficial region of ulcer, epidermization (bedsore; after one week): epidermization was observed on the superficial region of ulcer
- superficial region of ulcer, disappearance of sore and closure (bedsore; two weeks thereafter): sore disappeared from the superficial region of ulcer, and the epidermis was formed to close the sore region
- rubor or expansion (patch test) (human being): no rubor or expansion was observed at all
- healing of the ulcer after zoster ([2]; same ointment as Test Example 2 (0.5%) on gauze, about one week): a marked improvement in healing of the ulcer
- recurrence ([2]; same ointment as Test Example 2 (0.5%), six months after the healing): no recurrence was observed
- change in general symptoms, dermal symptoms and body weight (rats; 30 days): no change in general symptoms, dermal symptoms and body weight
- change in blood and physiological examinations, anatomical observation, wet weight of organs, and pathological histological examination (rats; after 30 days): no change was observed at all
- irritation on eyes (eyes of rabbits): no change was observed
- adverse side-effects (eczema craquele; during the period of treatment): no adverse side-effects were observed
- healing of eczema craquele (eczema craquele; one month): a marked improvement in healing of the disease
- healing of eczema craquele (eczema craquele; two months): the disease perfectly healed
